This note sets out measurements from PMC9653339, “Revisiting the anticancer properties of phosphane(9-ribosylpurine-6-thiolato)gold(I) complexes and their 9H-purine precursors” (Journal of Biological Inorganic Chemistry, 2022).

The subject of data set [1] is EA.hy926 endothelial hybrid cells. Put plainly: MTT cell viability assay, EA.hy926. It counts as cell-based, human. The following applies: 72 h. As for the experimental part:
(§1) All complexes stable in solution were investigated for their anti-proliferative effect on nine human cancer cell lines, using the MTT-based cell viability assay. Cells were seeded in 96-well microtiter plates (Sarstedt) with a cell density of 0.05 × 10^6 cells per ml and 100 µL per well and incubated for 24 h. A dilution series of test compounds was added to the wells, ranging in twelve steps from 100 µM to 5 nM. As a control, equal amounts of DMSO were added. Treated cells were further incubated for 72 h. Then, 12.5 µL per well of MTT solution (0.05% in phosphate-buffered saline (PBS)) was added, followed by another 2 h of incubation. The plates were centrifuged, the medium was discarded and 25 µL per well of SDS solution in DMSO (10% SDS, 0.6% AcOH in DMSO) was added to dissolve the formazan. The plates were incubated for a further hour. Absorbances at 570 nm and 630 nm were measured using a plate reader (Tecan). Background absorbance (630 nm) was subtracted from the formazan signal (570 nm). The resulting absorbance was directly proportional to the amount of viable cells. The control was normalized to 100% viable cells and viability of cells treated with test compounds was calculated accordingly. IC50 values were calculated based on a sigmoidal fit model using GraphPad Prism. Means and SD were calculated from at least four independent experiments.

The test system of data set [2] is HCT-116^wt colon carcinoma cells. Put plainly: MTT cell viability assay, HCT-116wt. The following applies: 72 h. It is filed as cell-based, human. On the procedure: as §1, with “Cells” for “All complexes stable in solution were investigated for their anti-proliferative effect on nine human cancer cell lines, using the MTT-based cell viability assay. Cells”
In general terms: Tetrazolium assays rely on reduction of a dye to a coloured formazan, in cell work by metabolically active cells.

Data set [3] has as its system HCT-116^p53−/− (p53 knockout mutant) colon carcinoma cells. Put plainly: MTT cell viability assay, HCT-116 p53-/-. It counts as cell-based, human. The following applies: 72 h. As for the experimental part:
as §1, with “Cells” for “All complexes stable in solution were investigated for their anti-proliferative effect on nine human cancer cell lines, using the MTT-based cell viability assay. Cells”

For data set [4], the system named is HeLa cervix carcinoma cells. Put plainly: MTT cell viability assay, HeLa. The following applies: 72 h. It counts as cell-based, human. On the procedure:
as §1

In data set [5] the test system is MCF-7 mamma carcinoma cells. Nature of the data set: MTT cell viability assay, MCF-7. It counts as cell-based, human. The following applies: 72 h, read-out: IC50 MCF7. On the procedure:
as §1

Data set [6] relates to 518A2 melanoma cells. Nature of the data set: MTT cell viability assay, 518A2. The following applies: 72 h. It counts as cell-based, human. On the procedure: as §1
Data set [7] deals with human adult dermal fibroblasts HDFa. Nature of the data set: MTT cell viability assay, HDFa. It is filed as cell-based. The following applies: 72 h, non-malignant fibroblasts. On the procedure:
as §1

Data set [8] relates to EA.hy926 cells. Nature of the data set: Tube formation assay. It counts as cell-based, human. The following applies: 5 µM (CA-4 0.01 µM). On the procedure:
EA.hy926 cells were cultured overnight in endothelial medium (37 °C, 95% humidity, 5% CO2) instead of DMEM. In addition, Matrigel was thawed on ice in the refrigerator. Pipette tips and 96-well plates were stored at − 20 °C overnight. The next day, 30 µL of Matrigel was added to each well bubble-free and the well plate was incubated for approximately 45 min (37 °C, 95% humidity, 5% CO2). Subsequently, 100 µL of cell suspension was added to each well at a concentration of 0.4–0.5 × 10^6 cells/mL onto the Matrigel-treated wells and the substances were added in tenfold pre-dilution. This was followed by incubation for approximately 6 h, until tubes formed in the negative control with DMSO. At this point, documentation under the microscope took place.

For data set [9], the system named is HT-29 colon carcinoma cells. Nature of the data set: MTT cell viability assay, HT-29. It counts as cell-based, human. The following applies: 72 h. As for the experimental part: as §1
Data set [10] has as its system mdr KB-V1^Vbl cervix carcinoma cells. Put plainly: MTT cell viability assay, KB-V1 (with and without verapamil). It counts as cell-based, human. The following applies: 72 h, without verapamil. As for the experimental part: as §1
The subject of data set [11] is mdr MCF-7^Topo mamma carcinoma cells. Nature of the data set: MTT cell viability assay, MCF-7Topo. The following applies: 72 h, read-out: IC50 MCF7^Topo. It is filed as cell-based, human. On the procedure:
as §1

Data set [12] has as its system U-87 glioblastoma cells. Nature of the data set: MTT cell viability assay, U-87. It is filed as cell-based, human. The following applies: 72 h. On the procedure: as §1
A short description of data set [13]: Stability by NMR in DMSO-d6 + 5% D2O. It counts as physicochemical. The following applies: for Stability (31P NMR): DMSO-d6 with additional D2O, three days. The text has this: In a further corroboration of the complex stability, the similarity of the chalcogens sulfur and selenium was exploited. The selenolato complex 10 was synthesized and examined for its stability under identical conditions. Since ^77Se is a 1/2 spin nucleus with roughly 8% natural abundance, its compounds can be investigated directly. Depending on whether a break in the Se–Au or the Au–PR3 bond would occur, the shift would change by several hundred ppm and serve as unequivocal evidence. […] In addition, we investigated the stability of complexes 1 and 5 as representatives of the series of purines and purine nucleosides, respectively, in cell culture medium by UV/Vis spectroscopy.

Data set [14] concerns caspase 3/7 in 518A2 melanoma cells. Nature of the data set: Caspase 3/7 activation. It counts as cell-based, human. The following applies: 518A2 cells, 10 µM, 6 h. On the procedure: The assay was conducted, following manufacturer’s instructions using the Cell Meter Caspase 3/7 activity apoptosis assay kit (AAT Bioquest). Briefly, 518A2 melanoma cells were seeded in 96-well flat black microtiter plates with a density of 0.22 × 10^6 cells per mL and 90 µL per well. After 24 h of incubation, 10 µL per well of tenfold diluted test compounds was added, and the cells were incubated for a further 6 h. Subsequently, 100 µL per well of Caspase 3/7 substrate working solution was added and incubated for 1 h in the dark at room temperature. The fluorescence was measured using a micro-plate reader (Tecan) at ex/em = 490/525 nm.

Usually IC50 stands for the concentration needed to halve the response being measured. Consider `CSc1ncnc2c1ncn2[C@@H]1O[C@H](CO)[C@@H](O)[C@H]1O` [6-MMR, 6-methylmercaptopurine riboside, reference compound], for which the half-inhibitory concentration (IC50) in data set [1] was 0.11 ± 0.001 µM; in data set [2] it was 0.1 ± 0.008 µM; in data set [3] it was 0.05 ± 0.001 µM; in [4], 0.0056 ± 0.0003 µM; in data set [5], 0.09 ± 0.003 µM; in [6], 1.4 ± 0.12 µM. Inhibition in data set [7] was half-maximal at 5.8 ± 0.46 µM (IC50). For the same compound, the “Inhibition of tube formation” value in [8] is reported as “inhibitory effects”.

Turning to `COc1ccc(/C=C\c2cc(OC)c(OC)c(OC)c2)cc1O` [CA-4, combretastatin A-4], the “Inhibition of tube formation” value in data set [8] was “Complete inhibition of tube formation”.

With `c1ccc([PH]([Au][S]c2ncnc3[nH]cnc23)(c2ccccc2)c2ccccc2)cc1` [Complex 1, (1,7-Dihydro-6H-purine-6-thiolato) (triphenylphosphane) gold(I)], the half-maximal inhibitory concentration (IC50) in data set [1] is 2.9 ± 0.7 µM; in data set [2], 4.9 ± 1 µM; in data set [3] it was 1.7 ± 0.3 µM; in [4], 2.6 ± 0.04 µM; in data set [9], 8 ± 0.73 µM; in data set [10], 1.9 ± 0.1 µM. The IC50 in data set [5] was determined as 13 ± 1.12 µM; in [11], 6.6 ± 0.65 µM; in data set [12], 0.91 ± 0.09 µM; in [6], 8 ± 0.71 µM.

Consider `Nc1nc([S][Au][PH](c2ccccc2)(c2ccccc2)c2ccccc2)c2nc[nH]c2n1` [Complex 2, (2-Amino-1,7-dihydro-6H-purine-6-thiolato) (triphenylphosphane) gold(I)], for which the IC50 worked out at 0.5 ± 0.1 µM in data set [1]; 0.8 ± 0.01 µM in data set [2]; 0.58 ± 0.01 µM in [3]; 0.6 ± 0.05 µM in [4]; 4.4 ± 0.32 µM in data set [9]; 0.3 ± 0.07 µM in data set [10]. For the same compound, the IC50 worked out at 2.2 ± 0.13 µM in data set [5], 3.7 ± 0.37 µM in [11], 1 ± 0.1 µM in data set [12] and 4.4 ± 0.33 µM in data set [6].

With `CC[PH](CC)(CC)[Au][S]c1ncnc2[nH]cnc12` [Complex 3, (1,7-Dihydro-6H-purine-6-thiolato) (triethylphosphane) gold(I)], the concentration for half-maximal inhibition (IC50) in [1] was 1.5 ± 0.11 µM; in data set [2] it was 6.3 ± 0.3 µM; in data set [3] it was 3.6 ± 0.8 µM; in data set [4], 6.8 ± 0.62 µM; in data set [9] it was 6.4 ± 1.4 µM; in data set [10] it was 2.5 ± 0.32 µM. In addition, the IC50 in data set [5] stood at 9.4 ± 0.53 µM; in [11] it was 10 ± 0.26 µM; in [12], 6.9 ± 0.47 µM; in [6] it was 8.4 ± 0.62 µM.

Take `CC[PH](CC)(CC)[Au][S]c1nc(N)nc2[nH]cnc12` [Complex 4, (2-Amino-1,7-dihydro-6H-purine-6-thiolato) (triethylphosphane) gold(I)]: the concentration for half-maximal inhibition (IC50) in data set [1] turned out to be 1.1 ± 0.08 µM; in data set [2], 25 ± 3.1 µM; in data set [3] it was 11 ± 0.5 µM; in [4], 15 ± 4.1 µM; in [9] it was 5.8 ± 1.7 µM; in data set [10], 12 ± 1 µM. In addition, the IC50 in data set [5] was 21 ± 3.4 µM; in [11], 4.9 ± 0.43 µM; in data set [12] it was 7 ± 0.66 µM; in data set [6], 16 ± 0.91 µM. Further, in data set [13], the “Stability (31P NMR)” value is “did not change noticeably”.

Regarding `CC[PH](CC)(CC)[Au][S]c1ncnc2c1ncn2[C@@H]1O[C@H](CO)[C@@H](O)[C@H]1O` [Complex 7, (1,7-Dihydro-6H-purine-9-β-D-ribofuranosyl-6-thiolato) (triethylphosphane) gold(I)], the 50% inhibitory concentration (IC50) turned out to be 0.43 ± 0.02 µM in data set [1]; 1.6 ± 0.2 µM in data set [2]; 0.5 ± 0.03 µM in data set [3]; 0.51 ± 0.05 µM in data set [4]; 2.2 ± 0.17 µM in [9]; 0.4 ± 0.04 µM in data set [10]. Besides, the half-inhibitory concentration (IC50) in [5] came to 2.1 ± 0.2 µM; in [11], 1.2 ± 0.11 µM; in data set [12] it was 1.1 ± 0.11 µM; in data set [6], 3 ± 0.21 µM; in data set [7], 7 ± 0.62 µM. Moreover, the “Caspase 3/7 activity” value in data set [14] is given as “even exceeded the effects of the three controls”. In addition, the “Stability (31P NMR)” value in [13] is listed as “did not change noticeably”.

Take `CC[PH](CC)(CC)[Au][S]c1nc(N)nc2c1ncn2[C@@H]1O[C@H](CO)[C@@H](O)[C@H]1O` [Complex 8, (2-Amino-1,7-dihydro-6H-purine-9-β-D-ribofuranosyl-6-thiolato) (triethylphosphane) gold(I)]: the half-maximal inhibitory concentration (IC50) in data set [1] is 1.7 ± 0.14 µM; in data set [2] it was 5.5 ± 0.3 µM; in data set [3], 1.8 ± 0.06 µM; in [4], 2.4 ± 0.21 µM; in data set [9], 4.5 ± 0.34 µM; in data set [10] it was 0.7 ± 0.07 µM. Besides, the IC50 in [5] was 10 ± 0.83 µM; in data set [11], 3.6 ± 0.34 µM; in data set [12] it was 1 ± 0.03 µM; in [6], 3.4 ± 0.33 µM; in [7] it was 7 ± 0.7 µM.

With `CC[PH](CC)(CC)[Au][S]c1nc([S][Au][PH](CC)(CC)CC)c2nc[nH]c2n1` [Complex 9, (1,7-Dihydro-6H-purine-2,6-bisthiolato) (triethylphosphane) gold(I)], the IC50 in data set [2] turned out to be 11.2 ± 0.78 µM; in data set [3] it was 3.7 ± 0.35 µM; in data set [4], 17.6 ± 0.8 µM; in [9] it was 11.1 ± 0.32 µM; in data set [6], 13.4 ± 1.2 µM.

`CC[PH](CC)(CC)[Au][Se]c1ncnc2[nH]cnc12` [Complex 10, (1,7-Dihydro-6H-purine-6-selenolato) (triethylphosphane) gold(I)]: the “Stability (77Se NMR)” value in data set [13] (DMSO-d6 + 5% D2O, identical conditions) is “no change in the shift of the ^77Se NMR signal”.
